Consider two compounds from patent US10363231B2, “Compounds and methods of treating ocular disorders” (CASE WESTERN RESERVE UNIVERSITY, priority 2014, dated 2019).

Data set [1] concerns Abca4^−/−Rdh8^−/− mice. Nature of the data set: Toxicity in treated Abca4−/−Rdh8−/− mice (Table 2). It is filed as in vivo. The settings on record: 4-week-old Abca4−/−Rdh8−/− mice, oral gavage. As for the experimental part: (§1) Abca4^−/−Rdh8^−/− double knockout mice were generated as previously described. Mice were housed in the animal facility at the School of Medicine, Case Western Reserve University, where they were maintained under either complete darkness or in a 12-h light (˜300 lux) and 12-h dark cycle. All tested primary amines were suspended in 100 μl of soybean oil with less than 10% (v/v) DMSO and were administered by oral gavage with a 22-gauge feeding needle. Experimental manipulations in the dark were done under dim red light transmitted through a Kodak No. 1 safelight filter (transmittance >560 nm). All animal procedures and experiments were approved by the Case Western Reserve University Animal Care Committees and conformed to recommendations of the American Veterinary Medical Association Panel on Euthanasia and the Association of Research for Vision and Ophthalmology.
(§2) For practical reasons, only eight of these leading compounds (QEA-B-001-NH2, B-002-NH2, C-001-NH2, C-003-NH2, C006-NH2, E-002-NH2, TEA-B-002-NH2, and C00-2-NH2) along with retinylamine as a control were selected for further testing in Abca4^−/−Rdh8^−/− mice, an animal model for light-induced retinal degeneration (Table 2). Additionally, two novel amines with moderate inhibition of RPE65 (QEA-A-006-NH2 and QEA-B-003-NI 12) and one with strong inhibition (QEA-A-005-NH2) were added to the first test group for comparison. Mice were gavaged with 1 mg of a test compound and then kept in the dark for 24 h prior to being exposed to bright light (˜10,000 lux) for 1 h. Retinal damage was assessed with OCT that measured the thickness of the outer nuclear layer and by quantification of tissue 11-cis retinal levels. An example is shown for imaging results in FIG. 4A and for 11-cis-retinal quantification in FIG. 4B. Additionally, extracts of livers obtained from treated mice were analyzed by HPLC to estimate the amounts of corresponding amides (FIG. 4C).

A short description of data set [2]: Analysis of retinoid composition in mouse tissues: amide forms in liver by HPLC. It is filed as in vivo, mice. The settings on record: oral gavage; for Protection by amide in liver: 4-week-old Abca4−/−Rdh8−/− mice, dark 24 h, liver extracts by HPLC. As for the experimental part: as §1
Two mg of primary amines were administered by oral gavage to 4-week-old Abca4^−/−Rdh8^−/− mice, which then were kept in the dark for 24 h. Then mice were euthanized, and their livers were homogenized in 1 ml of 10 mM sodium phosphate buffer, pH 7.4, containing 50% methanol (v/v). The resulting mixture was extracted with 4 ml of hexanes. Extracts were dried in vacuo, and reconstituted in 300 μl of hexanes. 100 μl of this solution was analyzed by HPLC as described above for the LRAT activity assay.
as §2

Data set [3] has as its system Abca4^−/−Rdh8^−/− mice. Nature of the data set: Light-induced acute retinal degeneration in Abca4−/−Rdh8−/− mice (OCT, 11-cis-retinal, ERG). It is filed as in vivo. The settings on record: for OCT imaging of the retina: 3 d after bleaching; for average ONL thickness: OCT 3 d after bleaching. As for the experimental part: as §1
After dark adaptation for 24 h, 4-week-old male or female Abca4^−/−Rdh8^−/− mice with pupils dilated by 1% tropicamide were exposed to fluorescent light (10,000 lx; 150 W spiral lamp, Commercial Electric) for 1 h in a white paper bucket (Papersmith), and then kept in the dark for an additional 3 d. Development of retinal degeneration was then examined by ultra-high resolution spectral-domain OCT (SDOCT; Bioptigen) and ERGs as previously described.
Then animals were euthanized and their eyes were collected and homogenized in 10 mM sodium phosphate buffer, pH 7.4, containing 50% methanol (v/v) and 40 mM hydroxylamine. The resulting mixture was extracted with 4 ml of hexanes. Extracts were dried in vacuo, reconstituted in 300 μl of hexanes and 100 μl of the extract was injected into an HPLC for analysis with 10% (v/v) ethyl acetate in hexanes.
as §2
Once the time course of retinylamine's inhibitory effect was established, we investigated the correlation between the level of inhibition and the protective effect on the retina. Four week old Abca4^−/−Rdh8^−/− mice were gavaged with 0.1, 0.2, and 0.5 mg of retinylamine, respectively, and kept in the dark for 24 h. Mice then were bleached with 10,000 lux bright light for 1 h. Measured as described above, the recovery of visual chromophore was inhibited by about 40%, 80%, and 95%, respectively by these tested drug doses (FIGS. 5B and 5C). Bleached mice were kept in the dark for 3 d, and then imaged by OCT (FIGS. 6A and 6B). […] The average ONL thickness in the latter group of mice was 51.1±5.8 μm, well within the range of healthy retinas. […] Their average ONL thickness was 34.4±17.4 μm. […] In an equivalent experiment, mice were kept in the dark for 7 days prior to quantification of visual chromophore levels. (Amounts of 11-cis-retinal reflect the concentration of rhodopsin and thus can be used to verify the health of photoreceptor cells).

Data set [4] has as its target T1, RPE65 (Bos taurus, UniProt Q28175).
T1 construct: from tissue; host or cells: bovine retinal pigment epithelium (RPE) microsomes
Nature of the data set: Retinoid isomerase activity assay (11-cis-retinol production in RPE microsomes). It is filed as biochemical, Bovine. The settings on record: for IC50: primary amine, decline in 11-cis-retinol production in RPE microsomes, read-out: Inhibition of RPE65. The procedure:
Bovine RPE microsomes were isolated from RPE homogenates by differential centrifugation as previously described. The resulting microsomal precipitate was resuspended in 10 mM Bis-Tris propane/HCl buffer, pH 7.4, to achieve a total protein concentration of […]. Then the mixture was placed in a quartz cuvette and irradiated for 6 min at 4° C. with a ChromatoUVE transilluminator (model TM-15; UVP) to eliminate residual retinoids. After irradiation, DTT was added to the RPE microsomal mixture to achieve a final concentration of 5 mM.
[…] The resulting mixture was pre incubated at room temperature for 5 min. Then 1 μl of all-trans-retinol (in DMF, final concentration 20 μM) was added. The resulting mixture was incubated at 37° C. for 15 min to 2 h. The reaction was quenched by adding 300 μl of methanol, and products were extracted with 300 μl of hexanes. Production of 11-cis-retinol was quantified by normal phase HPLC with 10% (v/v) ethyl acetate in hexanes as the eluent at a flow rate of 1.4 ml·min^−1. Retinoids were detected by monitoring their absorbance at 325 nm and quantified based on a standard curve representing the relationship between the amount of 11-cis-retinol and the area under the corresponding chromatographic peak.
Primary amines of compounds derived from the aldehydes were subsequently tested for their ability to inhibit the RPE65-dependent retinoid isomerization reaction in dose- and time dependent reactions as exemplified by QEB-B-001 (FIG. 3B). Amines were incubated with RPE microsomes in the presence of all-trans-retinol and the 11-cis-retinoid binding protein, CRALBP.
Progress of the enzymatic reaction was monitored by HPLC separation of retinoids and quantification of 11-cis-retinol with a decrease of 11-cis-retinol production reflecting inhibition of RPE65 by a tested amine. […] This moderate inhibition could be enhanced by shortening the polyene chain length (TEA amines) or diminished by introducing an extra positive charge into the tested compounds (QEA-G amines).

Setting [5] is: 0.1 mg, dark 7 days after bleaching.
The mark [6] stands for this setting: 0.2 mg, dark 7 days after bleaching.

“Also recorded” adds a separate entry of the source.

T1 sequence (Q28175 whole entry): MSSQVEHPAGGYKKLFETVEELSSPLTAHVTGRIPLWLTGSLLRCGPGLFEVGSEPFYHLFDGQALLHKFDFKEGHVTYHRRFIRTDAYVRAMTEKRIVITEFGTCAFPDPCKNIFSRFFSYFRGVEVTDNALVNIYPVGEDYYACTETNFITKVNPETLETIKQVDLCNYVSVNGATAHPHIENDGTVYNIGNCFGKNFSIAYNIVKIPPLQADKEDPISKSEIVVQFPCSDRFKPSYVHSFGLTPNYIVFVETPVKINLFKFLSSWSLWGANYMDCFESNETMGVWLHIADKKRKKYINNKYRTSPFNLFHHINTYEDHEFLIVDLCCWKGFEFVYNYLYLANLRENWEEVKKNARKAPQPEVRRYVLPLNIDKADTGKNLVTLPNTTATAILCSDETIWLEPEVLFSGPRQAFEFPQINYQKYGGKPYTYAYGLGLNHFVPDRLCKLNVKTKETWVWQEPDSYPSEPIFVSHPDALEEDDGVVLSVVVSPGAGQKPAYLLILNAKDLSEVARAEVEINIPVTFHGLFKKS

In the case of `CC1=C(/C=C/C(C)=C/C=C/C(C)=C/CN)C(C)(C)CCC1` [QEA-A-001-NH2, retinylamine], the Toxicity result in data set [1] is recorded as “None”. The “Protection by amide in liver” value in data set [2] is “Strong”. The “protection against retinal degeneration” value in data set [3] (0.1 mg dose, bright light exposure) is on record as “failed to protect”. Besides, the “OCT imaging of the retina” value in data set [3] (0.1 mg) is reported as “severe retinal degeneration”; in data set [3] (0.2 mg) it was “partially protected”; in data set [3] (0.5 mg), “clear intact ONL image”. For the same compound, the 11-cis-retinal levels in data set [3] (setting [5]) came out at 323±48 pmol/eye; in data set [3] (setting [6]) it was 445±37 pmol/eye. For the same compound, the ERG responses entry in data set [3] (setting [5]) is on record as “attenuated ERG responses”. Further, the entries for the “average ONL thickness” value in data set [3] (0.2 mg) and in data set [3] (0.5 mg) were 34.4±17.4 μm and 51.1±5.8 μm, respectively. Moreover, the “ERG scotopic a wave responses” value in data set [3] (setting [6]) was “same ERG scotopic a wave responses as unbleached control mice”; in data set [3] (0.5 mg, dark 7 days after bleaching), “same ERG scotopic a wave responses as unbleached control mice”. In addition, in data set [4], the IC50 was less than 10 µM.

As to `CC(/C=C/C=C(/C=C/C1=CCCCC1)C(C)(C)C)=C\CN` [QEA-B-001-NH2], the Toxicity result in data set [1] is “Yes”. In addition, the “Protection by amide in liver” value in data set [2] is “Strong”. For the same compound, the “amidation in vivo (accumulation of amide forms in mouse liver)” value in data set [2] (liver HPLC) is given as “efficiently converted into amides”. Besides, in data set [3] (gavaged with 1 mg, dark 24 h, ~10,000 lux 1 h, OCT), the “prevention of light-induced retinal degeneration” value is reported as “inability to prevent”. Further, in data set [4], the “inhibition of RPE65” value is “modest or non-inhibitor; also recorded: did not inhibit” and the IC50 was more than 200 µM.
